In the NIST ThermoML archive (doi:10.1021/je049875+) one finds activity coefficient data, which are given here for 16 molecules.

The data set is described as follows: activity coefficient (dimensionless); of the first substance listed, at infinite dilution; xn = mol fraction of the nth substance listed. Particulars: 101.33 kPa, Liquid, Chromatography, x1 = 0.

Numbers after ± are expanded uncertainties.

For `CCO` [ethanol] + O, the activity coefficient was found to be 5.03 ± 0.3 (303.25 K); 5.33 ± 0.32 (313.25 K); 5.54 ± 0.33 (323.25 K); 5.76 ± 0.34 (333.25 K); 5.96 ± 0.35 (343.25 K).

In the case of `CCCOCCC` [dipropyl ether] + O, the activity coefficient by setting is: (303.25 K) 2520 ± 150; (313.25 K) 2880 ± 180; (323.25 K) 3230 ± 200; (333.25 K) 3230 ± 200.

`CCC(C)(C)OC` [2-methoxy-2-methylbutane] + O: the activity coefficient (303.25 K) was determined as 643 ± 39, the activity coefficient (313.25 K) came out at 796 ± 48, the activity coefficient (323.25 K) amounted to 942 ± 57 and the activity coefficient (333.25 K) turned out to be 1080 ± 65.

For `c1ccccc1` [benzene] + O, the activity coefficient is, setting by setting: (308.95 K) 2470 ± 150; (313.25 K) 2370 ± 140; (318.25 K) 2250 ± 140; (323.15 K) 2140 ± 130.

On to `COC(C)=O` [methyl ethanoate] + O, for which the activity coefficient turned out to be 26.2 ± 1.6 (303.25 K); 28.4 ± 1.7 (313.25 K); 29.8 ± 1.8 (323.25 K); 31.2 ± 1.9 (333.25 K); 31.6 ± 1.9 (343.25 K).

Consider `COC(C)(C)C` [2-methoxy-2-methylpropane] + O, for which the activity coefficient by setting is: (303.25 K) 153 ± 9; (313.25 K) 195 ± 12; (323.25 K) 235 ± 14; (333.25 K) 278 ± 17.

As for `CCC(C)=O` [butanone] + O, the activity coefficient is, setting by setting: (303.25 K) 29.5 ± 1.8; (313.25 K) 33.8 ± 2; (323.25 K) 35.9 ± 2.1; (333.25 K) 38.9 ± 2.3.

Regarding `CCCC(C)=O` [pentan-2-one] + O, the activity coefficient (303.25 K) was found to be 105 ± 6, the activity coefficient (313.25 K) is 120 ± 7, the activity coefficient (323.25 K) was found to be 128 ± 8 and the activity coefficient (333.25 K) turned out to be 135 ± 8.

Turning to `CC(C)=O` [acetone] + O, the activity coefficient runs as follows: (303.25 K) 8.02 ± 0.48; (313.25 K) 9.2 ± 0.6; (323.25 K) 9.81 ± 0.58; (333.25 K) 10.3 ± 0.6.

For `CCOC(C)=O` [ethyl acetate] + O, the activity coefficient is, setting by setting: (303.25 K) 76.5 ± 4.6; (313.25 K) 85 ± 5; (323.25 K) 90.1 ± 5.4; (333.25 K) 94.7 ± 5.7; (343.25 K) 96.2 ± 5.8.

Take `CC(C)OC(C)C` [diisopropyl ether] + O: the activity coefficient stood at 737 ± 44 (303.25 K), 965 ± 58 (313.25 K), 1140 ± 69 (323.25 K) and 1310 ± 79 (333.25 K).

`CCCOC(C)=O` [propyl ethanoate] + O: the activity coefficient (303.25 K) is 297 ± 18; the activity coefficient (313.25 K) came out at 325 ± 20; the activity coefficient (323.25 K) came to 341 ± 21; the activity coefficient (333.25 K) was found to be 351 ± 21; the activity coefficient (343.25 K) was 348 ± 21.

For `Cc1ccccc1` [toluene] + O, the activity coefficient runs as follows: (308.95 K) 8570 ± 520; (313.25 K) 8090 ± 490; (318.25 K) 7720 ± 470; (323.15 K) 7110 ± 430.

With `COC=O` [methyl methanoate] + O, the activity coefficient by setting is: (303.25 K) 18.7 ± 1.1; (313.25 K) 19.1 ± 1.1; (323.25 K) 19.5 ± 1.2; (333.25 K) 19.8 ± 1.2.

Consider `CCOCC` [diethyl ether] + O, for which the activity coefficient was 90.1 ± 5.4 (303.25 K), 113 ± 7 (313.25 K), 135 ± 8 (323.25 K) and 158 ± 10 (333.25 K).

With `CCOC=O` [ethyl methanoate] + O, the activity coefficient is 53.8 ± 3.2 (303.25 K), 55.7 ± 3.3 (313.25 K), 57.1 ± 3.4 (323.25 K) and 57.7 ± 3.5 (333.25 K).
